Data as given in patent publication US10000452B1, “Quinolone-based compounds, formulations, and uses thereof” (University of South Florida, priority 2016, dated 2018).
In brackets after ≈: the same amount, converted by molar mass. Like-named read-outs stand apart in the source and are kept apart here.

What was measured:
[1] = tested on: malarial strain W2 (pyrimethamine and chloroquine-resistant); assay: in vitro antimalarial activity against multidrug resistant strain W2; type: cell-based, P. falciparum; details: Plasmodium falciparum
J774 mammalian cells = assay: cytotoxicity to J774 cells; type: cell-based; details: Mus musculus, J774, read-out: EC50 J774 (μM)
Method: This allowed a simplified method for comparing the different assays being simultaneously run. Additionally, each compound was also tested for cytotoxicity using mammalian J774 cell lines in a 96-well plate format.^12-14, 16

Pb-infected mice = assay: in vivo efficacy scouting assay against blood stages; parameters: species or system P. berghei; mice; details: for inhibition in vivo at 50 mg/kg: Plasmodium berghei, 144 h, read-out: % Inhibition Day 6 PI; for activities in these scout assays: result in words
Method: The screening involved a single oral 50 mg/kg dose 1 day post infection (PI) and an assessment of parasitemia on days 3 PI and 6 PI (Table 6).
The screening was performed by treating two infected mice with a single 50 mg/kg oral dose of test compound suspended in PEG400 on day 1 postexposure (PE) followed by assessing parasitemia on days 3 and 6 PE.

[2] = lipophilicity log D at pH 7.4; type: physicochemical; details: octanol/water
Excerpt: (§1) Furthermore, to profile the properties of the piperazinyl-4(1H)-quinolones, and to identify potential limitations, aqueous solubility and lipophilicity log D were experimentally determined via LC/MS-based assays as described by the Manetsch laboratory previously^8,10,31,32 (Tables 9-12). Encouragingly, the piperazinyl-4(1H)-quinolones were much more soluble than the previously described phenoxyethoxy-4(1H)-quinolone analogues.^19 As expected, the solubility of all compounds was affected by pH, with better solubility under more acidic conditions.
(§2) In parallel to testing the compounds for in vitro antimalarial activity, a limited structure-property relationship (SPR) study focusing on log D and aqueous solubility was conducted to assess potential physiochemical liabilities (FIG. 22). […] For these reasons, physicochemical properties were not strongly considered as selection criteria for in vivo efficacy studies.

[3] = tested on: P. berghei sporozoites expressing luciferase; assay: in vitro liver stage activity, luciferase sporozoites infecting HEPG2 hepatoma cells; type: cell-based; details: Plasmodium berghei, HEPG2 cells
[4] = aqueous solubility (LC/MS- or HPLC-based assay); type: physicochemical
Excerpt: as §1, §2

[5] = tested on: malarial strain TM90-C2B (mefloquine, chloroquine, atovaquone, and pyrimethamine-resistant); assay: microbe, parasite or virus in culture; type: cell-based, P. falciparum; details: for EC50: Plasmodium falciparum, TM90, read-out: EC50 TM90-C2B (nM); for RI: RI = EC50 TM90-C2B/EC50 W2
Excerpt: Ideally, the RI of a compound should lie between 0.3 and 3.0 in order to avoid rapidly inducing resistance in the parasite. […]

[6] = single oral 50 mg/kg dose 1 day PI
[7] = single oral 50 mg/kg dose 1 day PI, vs untreated animals
[8] = aqueous solution, pH 2, simulated gastric fluid, pH 2.0, read-out: Solubility pH 2.0
[9] = aqueous solution, pH 6.5, aqueous buffer, pH 6.5, read-out: Solubility pH 6.5
[10] = aqueous solution (buffer not named), pH 2, simulated gastric fluid, pH 2.0, read-out: Solubility pH 2.0
[11] = aqueous solution (buffer not named), pH 6.5, aqueous buffer, pH 6.5, read-out: Solubility pH 6.5
[12] = aqueous medium, pH 2, simulated gastric fluid, pH 2.0, read-out: Solubility pH 2.0
[13] = aqueous medium, pH 6.5, aqueous buffer, pH 6.5, read-out: Solubility pH 6.5

Row | Structure (SMILES) | EC50 ([1]; read-out: EC50 W2 (nM)) | EC50 (J774 mammalian cells) | inhibition in vivo at 50 mg/kg (Pb-infected mice; po) | activities in these scout assays (Pb-infected mice; [6]) | % Inhibition Day 3 PI (Pb-infected mice; [7]) | chromatographic logD [2] | EC50 [3] | solubility [4, 8] | solubility [4, 9] | EC50 [5] | RI [5] | solubility [4, 10] | solubility [4, 11] | % Inhibition Day 6 PI (Pb-infected mice; [7]) | solubility [4, 12] | solubility [4, 13] | EC50 ([1]; read-out: EC50 W2) | inhibition in vivo at 50 mg/kg (Pb-infected mice; [7]) | Solubility pH 2.0 (μM) ([4]; pH 2.0) | Solubility pH 6.5 (μM) ([4]; pH 6.5)
1 | COC(=O)c1c[nH]c2cc(CN3CCN(c4ccc(F)cc4)CC3)ccc2c1=O [Compound 8o, Methyl 7-((4-(4-fluorophenyl)piperazin-1-yl)methyl)-4-oxo-1,4-dihydroquinoline-3-carboxylate] | 1.75 nM | 2 µM | > 85% | excellent activities | full inhibition | 2.38 | 1.06 nM | ≥ 80 µM | ≥ 80 µM | 131 nM | 74.9 | – | – | – | – | – | – | – | – | –
2 | COC(=O)c1c[nH]c2ccc(CN3CCN(c4ccc(C(F)(F)F)cc4)CC3)cc2c1=O [Compound 8ai, Methyl 4-oxo-6-((4-(4-(trifluoromethyl)phenyl)piperazin-1-yl)methyl)-1,4-dihydroquinoline-3-carboxylate] | 45.2 nM | > 20 µM | – | – | – | 3.01 | 85 nM | – | – | 2900 nM | 64.2 | ≥ 80 µM | 1 to 19.9 µM (≈ 0.445 to 8.86 µg/mL) | – | – | – | – | – | – | –
3 | COC(=O)c1c[nH]c2ccc(CN3CCN(c4ccccc4)CC3)cc2c1=O [Compound 8af, Methyl 4-oxo-6-((4-phenylpiperazin-1-yl)methyl)-1,4-dihydroquinoline-3-carboxylate] | 151 nM | > 20 µM | – | – | – | 2.03 | 90.5 nM | – | – | 3200 nM | 21.2 | ≥ 80 µM | 20 to 39.9 µM (≈ 7.55 to 15.1 µg/mL) | – | – | – | – | – | – | –
4 | COC(=O)c1c[nH]c2cc(N3CCN(c4ccccc4)CC3)ccc2c1=O [Compound 8a, Methyl 4-oxo-7-(4-phenylpiperazin-1-yl)-1,4-dihydroquinoline-3-carboxylate] | 4.45 nM | > 20 µM | – | – | – | 2.58 | 74.1 nM | – | – | – | – | – | – | little to moderate protection | 1 to 19.9 µM (≈ 0.363 to 7.23 µg/mL) | – | – | – | – | –
5 | COC(=O)c1c[nH]c2cc(CN3CCN(c4ccccc4)CC3)c(C)cc2c1=O [Compound 8q, Methyl 6-methyl-4-oxo-7-((4-phenylpiperazin-1-yl)methyl)-1,4-dihydroquinoline-3-carboxylate] | 0.435 nM | 11.9 µM | – | – | – | 2.81 | 6.92 nM | – | – | 147 nM | 338 | – | – | little to moderate protection | ≥ 80 µM | 60 to 79.9 µM (≈ 23.5 to 31.3 µg/mL) | – | – | – | –
6 | COC(=O)c1c[nH]c2cc(CN3CCN(c4ccc(OC)cc4)CC3)c(OC)cc2c1=O [Compound 8z, Methyl 6-methoxy-7-((4-(4-methoxyphenyl)piperazin-1-yl)methyl)-4-oxo-1,4-dihydroquinoline-3-carboxylate] | 3.38 nM | 15.7 µM | – | excellent activities | – | 2.19 | 10.4 nM | ≥ 80 µM | ≥ 80 µM | 861 nM | – | – | – | 70.6% | – | – | – | – | – | –
7 | COC(=O)c1c[nH]c2cc(CN3CCN(c4ccc(C(F)(F)F)cc4)CC3)ccc2c1=O [Compound 8p, Methyl 4-oxo-7-((4-(4-(trifluoromethyl)phenyl)piperazin-1-yl)methyl)-1,4-dihydroquinoline-3-carboxylate] | 0.315 nM | 10.7 µM | > 85% | excellent activities | full inhibition | 3.23 | 15.6 nM | ≥ 80 µM | 1 to 19.9 µM (≈ 0.445 to 8.86 µg/mL) | 122 nM | 387 | – | – | completely inhibited parasite growth | – | – | – | – | – | –
8 | COC(=O)c1c[nH]c2cc(CN3CCN(Cc4ccccc4)CC3)ccc2c1=O [Compound 8k, Methyl 7-((4-benzylpiperazin-1-yl)methyl)-4-oxo-1,4-dihydroquinoline-3-carboxylate] | 1.41 nM | 10.4 µM | – | – | – | 2.06 | 43.7 nM | – | – | 153 nM | – | – | – | little to moderate protection | ≥ 80 µM | ≥ 80 µM | – | – | – | –
9 | COC(=O)c1c[nH]c2ccc(CN3CCN(c4ccc(OC)cc4)CC3)cc2c1=O [Compound 8ag, Methyl 6-((4-(4-methoxyphenyl)piperazin-1-yl)methyl)-4-oxo-1,4-dihydroquinoline-3-carboxylate] | 164 nM | > 20 µM | – | – | – | 1.91 | > 100 nM | – | – | 2900 nM | 17.7 | ≥ 80 µM | 20 to 39.9 µM (≈ 8.15 to 16.3 µg/mL) | little to moderate protection | – | – | – | – | – | –
10 | COC(=O)c1c[nH]c2cc(N3CCN(Cc4ccccc4)CC3)c(C)cc2c1=O [Compound 8g, Methyl 7-(4-benzylpiperazin-1-yl)-6-methyl-4-oxo-1,4-dihydroquinoline-3-carboxylate] | 13.2 nM | > 20 µM | – | – | – | 2.37 | > 100 nM | – | – | 982 nM | 74.4 | – | – | – | ≥ 80 µM | ≥ 80 µM | – | – | – | –
11 | COC(=O)c1c[nH]c2cc(CN3CCN(c4ccc(F)cc4)CC3)c(C)cc2c1=O [Compound 8u, Methyl 7-((4-(4-fluorophenyl)piperazin-1-yl)methyl)-6-methyl-4-oxo-1,4-dihydroquinoline-3-carboxylate] | 0.843 nM | 15.7 µM | – | – | – | 2.9 | 2.64 nM | ≥ 80 µM | 40 to 59.9 µM (≈ 16.4 to 24.5 µg/mL) | 348 nM | – | – | – | – | – | – | 0.843 nM | – | – | –
12 | COC(=O)c1c[nH]c2cc(CCN3CCN(Cc4ccccc4)CC3)ccc2c1=O [Compound 8ad, Methyl 7-(2-(4-benzylpiperazin-1-yl)ethyl)-4-oxo-1,4-dihydroquinoline-3-carboxylate] | 116 nM | > 20 µM | – | – | – | 1.72 | 157 nM | – | – | 6170 nM | – | – | – | – | ≥ 80 µM | ≥ 80 µM | – | – | – | –
13 | COC(=O)c1c[nH]c2cc(CN3CCN(c4ccc(OC)cc4)CC3)c(C)cc2c1=O [Compound 8t, Methyl 7-((4-(4-methoxyphenyl)piperazin-1-yl)methyl)-6-methyl-4-oxo-1,4-dihydroquinoline-3-carboxylate] | 0.575 nM | > 20 µM | – | – | – | 2.61 | 4.11 nM | ≥ 80 µM | 20 to 39.9 µM (≈ 8.43 to 16.8 µg/mL) | 177 nM | 308 | – | – | – | – | – | – | – | – | –
14 | COC(=O)c1c[nH]c2cc(CN3CCN(Cc4ccccc4)CC3)c(OC)cc2c1=O [Compound 8x, Methyl 7-((4-benzylpiperazin-1-yl)methyl)-6-methoxy-4-oxo-1,4-dihydroquinoline-3-carboxylate] | 5.45 nM | > 20 µM | – | – | – | 1.28 | 9.26 nM | – | – | 2830 nM | – | – | – | little to moderate protection | ≥ 80 µM | 60 to 79.9 µM (≈ 25.3 to 33.7 µg/mL) | – | – | – | –
15 | COC(=O)c1c[nH]c2cc(N3CCN(Cc4ccccc4)CC3)ccc2c1=O [Compound 8b, Methyl 7-(4-benzylpiperazin-1-yl)-4-oxo-1,4-dihydroquinoline-3-carboxylate] | 16.2 nM | > 20 µM | – | – | – | 2.21 | 84.5 nM | – | – | – | – | – | – | – | 60 to 80 µM (≈ 22.6 to 30.2 µg/mL) | 60 to 80 µM (≈ 22.6 to 30.2 µg/mL) | – | ~40% | 60-79.9 μM | 60-79.9 μM
